Test results from US12667584B2, “Adenosine analog and its use in regulating the circadian clock” (NATIONAL INSTITUTE OF BIOLOGICAL SCIENCES, BEIJING, priority 2017, dated 2026).

How the values were obtained:
[1] = target: T1, Ruvbl2, Bmal1, Cry1 and CDK9 interaction (Homo sapiens, UniProt Q9Y230); assay: Co-immunoprecipitation in transfected HEK293T cells; assay type: cell-based; settings: 100 μM
T1 construct: expressed in transfected cells; host or cells: HEK293T
Protocol: Biotinylated Compounds Pull-down, SPR analysis and Immunoprecipitation: The interaction between biotinylated compounds and their target proteins were proceeded as follow. Every 10^8 unsynchronized U2OS cells were collected, homogenized into 2 ml lysis buffer (25 mM MOPS pH7.2, 15 mM EGTA, 15 mM MgCl2, 1 mM DTT, 60 mM β-glycerophosphate, 1 mM Na3VO4, 1 mM NaF, 1 mM phenyl phosphate, Complete Protease Inhibitor Cocktail), and sonicated 6 times for 30 s at 4° C. with a Diagenode bioruptor. After sonication, NP-40 (final 0.5%) was added, incubated 15 min on ice, centrifuged at full speed for 20 min at 4° C. The resultant supernatant was firstly incubated with Pentostatin (final concentration at 5 μg/ml) for 2 h at 4° C. with rotation, and then split into 4 groups. 200 pmol cordycepin, 200 pmol DRB, and DMSO (2 groups, final 0.1%) was added respectively and further incubated for 1 h. […] The eluted protein was analyzed with western blot. The binding affinity of cordycepin against the RUVBL2 protein was measured via SPR technology using a Biacore T200 instrument (GE Healthcare) at room temperature. […] The binding kinetics and binding affinity of cordycepin against the RUVBL2 protein were determined with BIA evaluation software (GE healthcare). […] Immunoprecipitated protein complex was then washed 3 times with IP lysis buffer, boiled and analyzed with western blot. […]

Per2::Luc = assay: In-vivo imaging of luciferase signal in Per2::Luc knockin mice; design: species or system mouse
Protocol: Drug injection and in-vivo imaging analysis: mPer2Luciferase knockin mice were housed in Germ Free Animal Facility, under 12 h light/dark photoperiod, with food and water ad libitum. 8 week-old male mPer2Luciferase knockin mice were intraperitoneal injection with 15 mg/kg bw CA03 or DMSO. CA03 was firstly dissolved in DMSO to the concentration of 200 μg/μl, then dilute with saline to the final concentration of 1000 μg/ml for intraperitoneal injection. 1 h later, d-luciferin (Gold Bio.) was intraperitoneally injected. Relative luciferase activity were imaged on IVIS Lumina III system and analysed with in-vivo imaging software (PerkinElmer). […]
Next, the inventors sought to determine whether the clock effects of cordycepin can be recaptured in vivo. […] This observation is especially true when nascent RNA levels were measured, highlighting the first-order, inductive response in E-box genes as previously proposed(FIG. 2B).
To test whether cordycepin function in vivo, we firstly tested luciferase signal level by live imaging of Per2:LUC mice after intraperitoneal injection of 15 mg/kg cordycepin or DMSO. […] Prior evaluation the jet-leg cure ability of cordycepin, we detected whether cordycepin and it's prodrug pro-CA03 can penetrate BBB. We injected cordycepin or pro-CA03 via tail vein and time course sampled CSF and analyzed cordycepin pro-CA03 level with HPLC-MASS method. […]

T1 sequence (Q9Y230 whole entry): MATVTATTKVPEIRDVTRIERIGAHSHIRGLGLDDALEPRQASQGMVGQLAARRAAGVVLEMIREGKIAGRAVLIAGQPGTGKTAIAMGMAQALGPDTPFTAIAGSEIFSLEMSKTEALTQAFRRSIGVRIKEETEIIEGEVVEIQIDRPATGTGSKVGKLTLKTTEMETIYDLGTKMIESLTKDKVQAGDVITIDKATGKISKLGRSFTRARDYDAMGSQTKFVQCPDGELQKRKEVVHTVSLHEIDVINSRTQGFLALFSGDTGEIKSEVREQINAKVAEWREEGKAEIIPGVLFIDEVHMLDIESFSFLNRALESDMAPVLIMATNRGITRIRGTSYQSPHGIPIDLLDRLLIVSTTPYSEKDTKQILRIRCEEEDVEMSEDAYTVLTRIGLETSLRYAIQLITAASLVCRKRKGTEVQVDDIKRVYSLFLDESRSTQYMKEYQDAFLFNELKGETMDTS

Nc1ncnc2c1ncn2[C@@H]1O[C@H](CO)C[C@H]1O [Cordycepin, 3′-deoxy-adenosine]
interaction between Ruvbl2 and Bmal1, or Cry1 with Bmal1 [1]: can be disassociated | interaction between Ruvbl2 with Cry1 or CDK9 [1]: is not disassociated | increase of luciferase signal in liver compared with DMSO control (Per2::Luc; 15 mg/kg intraperitoneal): more than 4 folds | time to induction of luciferase signal after drug administration (Per2::Luc; i.p. at ZT4): ≤ 1 h
